Results: US8822441B2, “Ecdysterone synthesis derivative, preparation method and use thereof” (priority 2010, dated 2014)
Where a name gives a salt, the structure may show the parent alone.

Assays:
β-TC3 cells = details: cited from earlier work
InsR protein = details: 1×10^−5 mol/L; cited from earlier work
PI3K and GLUT-4 proteins = details: 1×10^−5M, P<0.05; cited from earlier work
[1] = dissolution experiment (solubility in water); format: physicochemical; details: for amount of water necessarily for completely dissolving this product (1 g): 1 g of product; for solubility in water relative to 20-hydroxy-β-ecdysterone: fold of that of 20-hydroxy-β-ecdysterone
normal mice = assay: level of blood glucose in normal mice; format: in vivo, Kunming mouse; details: for effects in lowering glucose in normal mice: 5 mg/kg; for Blood glucose 3 d after dosing: 5th administration; for Blood glucose 3 d after dosing / Blood glucose 10 d after dosing: fasting 2 h, X ± S; for Blood glucose 10 d after dosing: 19th administration
Experimental: 40 male mice with a body weight of 21±1.8 g (Kunming mouse: SPF grade, male, provided by laboratory animal centre of Sichuan Academy of Chinese Medicine Sciences) were grouped into 4 groups randomly, which are control group, 5 mg/kg of the compound of formula I group, 5 mg/kg of the sodium salt of the compound of formula I group, and 25 mg/kg of Glibenclamide (manufactured by Tianjin Pacific Chemical & Pharmaceutical Co., LTD) group. For the control group, distilled water was given, while for other groups, corresponding medicaments were given. The medicament was intragastrically administered in 0.2 ml/10 g of administration volume twice daily. The administration was continued for 19 times. On the 5th time and 19th time and after thoroughly fasting for 2 h, the blood glucose value for each mouse was tested by a Blood Glucose Meter, and the results were recorded as follows: […]

HepG2 cells = assay: in vitro glucose consumption in HepG2 cells (glucose oxidase method); format: cell-based; details: for Glucose consumption / Glucose consumption increased: HepG2 cells; for Glucose consumption: 24 h, x ± s, n = 8; for Glucose consumption increased: versus blank control group
Experimental: HepG2 cells with good growth state were selected, and were digested with trypsinase and EDTA (ethylene diamine tetraacetic acid) digestive juice. After digestion was complete, the resulting mixture was formulated with DMEM (Dulbecco's Modified Eagle Medium) having 10% Fetal bovine serum (FBS) into single cell suspension. The cells were seeded into 96 well plates, with 1*10^4 cells per well. Once the cell confluence reached 50%, the medium was changed to high glucose DMEM without serum, starvation cultured for 12 h. The cell supernatant was pipetted, and fresh high glucose DMEM with or without medications was added. The cells were divided into a blank control group, a 20-hydroxy-β-ecdysterone group, and a compound of formula I group. After culturing for 24 h, each group was tested for the change of glucose in the medium by using the glucose oxidase method.

[2] = 5 mg/kg intragastrically twice daily
[3] = 5 mg/kg intragastrically twice daily, *P<0.05 vs control
[4] = 25 mg/kg intragastrically twice daily, *P<0.05 vs control

| SMILES | amount of water necessarily for completely dissolving this product (1 g) [1] | solubility in water relative to 20-hydroxy-β-ecdysterone [1] | effects in lowering glucose in normal mice (normal mice) | Blood glucose 3 d after dosing (normal mice; [2]) | Blood glucose 10 d after dosing (normal mice; [3]) | Glucose consumption (HepG2 cells; 2 × 10^−7 M) | Glucose consumption increased (HepG2 cells; 2 × 10^−7 M) | Glucose consumption (HepG2 cells; 2 × 10^−8 M) | Glucose consumption increased (HepG2 cells; 2 × 10^−8 M) | Glucose consumption (HepG2 cells; 2 × 10^−9 M) | other results |
| --- | --- | --- | --- | --- | --- | --- | --- | --- | --- | --- | --- |
| CC(C)(O)CC[C@@H](O)[C@](C)(O)[C@H]1CC[C@@]2(O)C3=CC(=O)[C@@H]4C[C@@H](O)[C@@H](O)C[C@]4(C)[C@H]3CC[C@]12C [ecdysterone] | – | – | – | – | – | – | – | – | – | – | stimulating insulin secretion of β-TC3 cells (β-TC3 cells): does not have the action of stimulating insulin secretion; expression of InsR protein in IR HepG2 cells (InsR protein): significantly increases; expression of PI3K and GLUT-4 proteins in insulin resistant HepG2 cells (PI3K and GLUT-4 proteins): increases |
| CC(C)(O)CC[C@H]1OP(=O)(O)O[C@]1(C)[C@H]1CC[C@@]2(O)C3=CC(=O)[C@@H]4C[C@@H](O)[C@@H](O)C[C@]4(C)C3CC[C@]12C (some centres unmarked) [sodium salt of the compound of formula I] | 2.5 mL | 50 fold | have the effects in lowering glucose | 10.2 ± 1.9 mmol/L | 9.8 ± 1.4* mmol/L | – | – | – | – | – | – |
| COc1ccc(Cl)cc1C(=O)NCCc1ccc(S(=O)(=O)NC(=O)NC2CCCCC2)cc1 [Glibenclamide, reference compound] | – | – | – | – | – | – | – | – | – | – | Blood glucose 3 d after dosing (normal mice; [4]): 9.3 ± 0.9* mmol/L; Blood glucose 10 d after dosing (normal mice; [4]): 9.9 ± 0.9* mmol/L |
| CC(C)(O)CC[C@H]1OP(=O)(O)O[C@]1(C)[C@H]1CC[C@@]2(O)C3=CC(=O)[C@@H]4C[C@@H](O)[C@@H](O)C[C@]4(C)C3CC[C@]12C (some centres unmarked) [the compound of formula I] | 12 mL | 10 fold | have the effects in lowering glucose | 10.4 ± 1.7 mmol/L | 9.1 ± 2.3* mmol/L | 6.96 ± 0.23 mM | 5.64 mM | 6.51 ± 0.12 mM | 5.19 mM | 6.46 ± 0.19 mM | Glucose consumption increased (HepG2 cells; 2 × 10^−9 M): 5.14 mM; increase of the glucose consumption in HepG2 cells (HepG2 cells; concentration range 2×10^−7˜2×10^−9 M): above 500% |
| CC(C)(O)CC[C@@H](O)[C@](C)(O)[C@H]1CC[C@@]2(O)C3=CC(=O)[C@@H]4C[C@@H](O)[C@@H](O)C[C@]4(C)[C@H]3CC[C@]12C [20-hydroxy-β-ecdysterone, reference compound] | – | – | – | – | – | 1.45 ± 0.28 mM | 0.13 mM | 1.38 ± 0.11 mM | 0.06 mM | 1.30 ± 0.23 mM | increase of the glucose consumption in HepG2 cells (HepG2 cells; concentration 2×10^−7˜2×10^−8 M): below 15%; effect for lowering glucose in HepG2 cells (HepG2 cells; concentration 2×10^−9 M): no effect |
